Our source for the solubility values is patent US5684140A, “Dyes for ink jet printing” (Ilford A.G., priority 1995, dated 1997).

Each structure is given as a SMILES string.

The data set can be described thus: Water solubility of the dyes (excess dye heated at 50 °C in water, cooled to 20 °C, filtered, determined spectroscopically). Type of data set: physicochemical. Particulars: after heating at 50 °C for one hour. On the procedure:
The solubilities of the dyes according to the invention were determined as follows:
An excess of dye was heated at 50° C. in water with stirring for one hour. The mixture was then cooled down to 20 ° C. and filtered, and the dye content of the clear solution was determined spectroscopically.
The compound `COc1cc(N=Nc2cc(S(=O)(=O)O)c3cccc(S(=O)(=O)O)c3c2)c(C)cc1Nc1nc(NCCS(=O)(=O)O)nc(SCCO)n1` [Compound 101] yielded a solubility of 40 g per 100 ml.

On to `CCN(c1nc(Cl)nc(Nc2cc(NC(C)=O)c(N=Nc3cc(S(=O)(=O)O)c4cccc(S(=O)(=O)O)c4c3)cc2OC)n1)c1cc(S(=O)(=O)O)ccc1C` [dye 5, reference compound], for which the solubility amounted to 17 g per 100 ml.

As for `CCN(c1nc(Cl)nc(Nc2ccc(N=Nc3cc4c(S(=O)(=O)O)cc(S(=O)(=O)O)cc4cc3S(=O)(=O)O)c(NC(N)=O)c2)n1)c1cc(S(=O)(=O)O)ccc1C` [dye 1, reference compound], the solubility came out at 11 g per 100 ml.

`COc1cc(N=Nc2cc(S(=O)(=O)O)c3cccc(S(=O)(=O)O)c3c2)c(C)cc1Nc1nc(NCCS(=O)(=O)O)nc(SCC(=O)O)n1` [Compound 102]: the solubility turned out to be 54 g per 100 ml.

`COc1cc(N=Nc2cc(S(=O)(=O)O)c3cccc(S(=O)(=O)O)c3c2)c(C)cc1Nc1nc(O)nc(NCCS(=O)(=O)O)n1` [Compound 100]: the solubility came to 31 g per 100 ml.
